Entries after “also recorded” stand apart in the source; their conditions may differ. Read-outs that look alike come from different tables or passages of the source.
How the values were obtained:
[1] = tested on: acetic acid-induced abdominal constriction responses in mice; assay type: in vivo, mouse (ICR); settings: 15 min before acetic acid, 30 min count, n = 6
Method: The abdominal constriction responses induced by intraperitoneal (i.p.) injection of 0.2 mL acetic acid (0.8%), including contraction of the abdominal muscle and stretching of the hind limbs, were performed according to procedures described by Collier et al.. Mice (male, weighing 20–25 g) were pre-treated with the test samples dissolved in saline by intraperitoneal (i.p.) injection for 15 min prior to acetic acid injection. Control animals received the same volume of vehicle (saline: 0.9% sodium chloride solution). After the challenge, mice were individually placed into open polyvinyl cages (30 cm × 40 cm × 30 cm), and the abdominal constriction responses were counted cumulatively during 30 min, which was represented as the sum of constriction (S). The inhibition of pain responses was calculated by the equation as follows: inhibition of pain responses % = (Ssaline − Sdrug)/Ssaline per animal. One hundred percent corresponds to complete reversal of pain, equivalent to the non-injury value, and 0% corresponds to the value from the saline group.

[2] = tested on: neuronal TTX-S VGSCs in rat dorsal root ganglion (DRG) cells; settings: cited from earlier work
Description: μ-TRTX-Hhn1b (HNTX-IV) is a 35-residue peptide from tarantula Ornithoctonus hainana (Haplopelma hainanum) venom. The amino acid sequence is […]. The peptide amidated at its C-terminal has a high proportion of basic residues and is crosslinked by three disulfide bonds. […] Therefore, the rotarod latency test was used to access the motor side effects of μ-TRTX-Hhn1b in rats.

[3] = tested on: Nav1.2, Nav1.3, Nav1.4, Nav1.5, Nav1.7; settings: reference not given; cited from earlier work
mice and rats = test: observation of death and abnormal behaviors in the pain tests; assay type: in vivo
human Nav1.7 = molecular target: T1, human Nav1.7 (Homo sapiens, UniProt Q15858); test: whole-cell patch clamp, human Nav1.7 transiently expressed in HEK 293 cells; assay type: cell-based
T1 construct: expressed in transfected cells; host or cells: HEK293 cells, transient transfection with Lipofectamine 2000
T1 sequence (Q15858 other isoform, or with tags, fused parts or gaps): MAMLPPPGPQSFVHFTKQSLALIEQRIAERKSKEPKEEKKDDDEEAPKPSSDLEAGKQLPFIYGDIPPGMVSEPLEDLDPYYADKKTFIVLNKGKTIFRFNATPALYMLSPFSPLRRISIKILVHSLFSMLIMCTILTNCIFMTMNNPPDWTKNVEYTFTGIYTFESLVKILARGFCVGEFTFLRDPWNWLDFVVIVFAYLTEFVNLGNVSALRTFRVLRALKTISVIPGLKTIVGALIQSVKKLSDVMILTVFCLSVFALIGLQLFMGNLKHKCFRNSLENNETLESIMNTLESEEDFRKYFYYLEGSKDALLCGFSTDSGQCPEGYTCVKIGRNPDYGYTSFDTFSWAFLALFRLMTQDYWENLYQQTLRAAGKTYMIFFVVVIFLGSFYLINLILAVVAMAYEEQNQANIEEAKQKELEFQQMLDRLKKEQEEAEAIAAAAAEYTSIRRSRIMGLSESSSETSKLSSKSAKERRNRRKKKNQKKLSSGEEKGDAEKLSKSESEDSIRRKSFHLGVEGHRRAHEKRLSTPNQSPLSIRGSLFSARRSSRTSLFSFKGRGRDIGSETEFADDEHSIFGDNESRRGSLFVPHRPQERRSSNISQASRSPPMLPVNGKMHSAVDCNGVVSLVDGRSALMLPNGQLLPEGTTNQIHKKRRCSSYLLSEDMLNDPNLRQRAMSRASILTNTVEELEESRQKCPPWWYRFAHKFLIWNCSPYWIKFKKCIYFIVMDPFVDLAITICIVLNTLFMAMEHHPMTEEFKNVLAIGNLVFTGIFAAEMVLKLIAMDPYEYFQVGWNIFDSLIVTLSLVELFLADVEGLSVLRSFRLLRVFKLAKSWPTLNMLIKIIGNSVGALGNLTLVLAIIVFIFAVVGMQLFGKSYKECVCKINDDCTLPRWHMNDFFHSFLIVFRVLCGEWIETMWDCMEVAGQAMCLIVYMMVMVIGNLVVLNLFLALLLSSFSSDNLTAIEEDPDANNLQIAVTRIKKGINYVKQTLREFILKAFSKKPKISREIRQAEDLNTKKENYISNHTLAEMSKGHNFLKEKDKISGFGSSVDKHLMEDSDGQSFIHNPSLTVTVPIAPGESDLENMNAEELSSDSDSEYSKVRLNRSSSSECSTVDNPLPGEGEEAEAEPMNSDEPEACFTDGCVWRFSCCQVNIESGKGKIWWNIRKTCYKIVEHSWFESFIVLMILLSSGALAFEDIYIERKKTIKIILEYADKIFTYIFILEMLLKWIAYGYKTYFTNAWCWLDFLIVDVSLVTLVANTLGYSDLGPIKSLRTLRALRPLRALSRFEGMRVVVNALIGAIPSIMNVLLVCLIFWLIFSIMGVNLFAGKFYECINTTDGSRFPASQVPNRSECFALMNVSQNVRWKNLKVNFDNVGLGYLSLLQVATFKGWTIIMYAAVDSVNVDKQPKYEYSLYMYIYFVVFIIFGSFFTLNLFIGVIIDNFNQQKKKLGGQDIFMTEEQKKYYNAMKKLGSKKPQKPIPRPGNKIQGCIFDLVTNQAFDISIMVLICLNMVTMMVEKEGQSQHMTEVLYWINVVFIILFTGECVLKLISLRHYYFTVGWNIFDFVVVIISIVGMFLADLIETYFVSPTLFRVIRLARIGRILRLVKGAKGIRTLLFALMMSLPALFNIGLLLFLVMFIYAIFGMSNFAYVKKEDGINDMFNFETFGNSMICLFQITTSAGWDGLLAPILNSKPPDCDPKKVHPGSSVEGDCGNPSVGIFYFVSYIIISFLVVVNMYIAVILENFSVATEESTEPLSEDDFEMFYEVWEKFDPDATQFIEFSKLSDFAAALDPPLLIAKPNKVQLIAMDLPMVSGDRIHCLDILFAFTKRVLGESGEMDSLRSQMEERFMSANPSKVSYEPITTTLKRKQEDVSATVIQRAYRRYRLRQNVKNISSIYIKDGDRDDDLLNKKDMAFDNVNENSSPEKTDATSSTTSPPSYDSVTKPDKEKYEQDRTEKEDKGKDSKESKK
T1 sequence (Q07699 19-218, further chain): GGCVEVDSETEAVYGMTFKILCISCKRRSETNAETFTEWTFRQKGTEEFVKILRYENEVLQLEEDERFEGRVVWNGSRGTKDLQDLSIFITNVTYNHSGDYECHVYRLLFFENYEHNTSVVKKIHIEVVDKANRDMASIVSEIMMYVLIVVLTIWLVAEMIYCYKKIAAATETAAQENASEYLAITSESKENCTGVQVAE
Description: Figure 2 Inhibitory effect of synthetic μ-TRTX-Hhn1b on Nav1.7 expressed on HEK 293 cells. […] (B) The inhibition of μ-TRTX-Hhn1b on Nav1.7 was dose-dependent. […] Data are plotted as a fraction of the maximum conductance. The voltage-dependence of steady-state inactivation was estimated using a standard double-pulse protocol, in which a 20-ms depolarizing test potential of 0 mV followed a 500-ms prepulse at potentials that ranged from −130 to −10 mV with a 10-mV increment. Cells were held at −100 mV.
A human Nav1.7 channel plasmid (accession No. NM_002977) and a plasmid for green ﬂuorescent protein were transiently transfected into human embryonic kidney 293 (HEK293) cells using Lipofectamine 2000 (Invitrogen, Carlsbad, CA, USA) according to the manufacturer’s instructions. HEK293 cells were grown under standard tissue culture conditions (5% CO2; 37 °C) in DMEM supplemented with 10% FBS. The β1 subunit was cotransfected with the Nav1.7 channel to increase the current density. Cells with green ﬂuorescence were selected for whole-cell patch-clamp recording at 36–72 h after transfection. Patch-clamp experiments were performed at room temperature. Suction pipettes (2.0–3.0 MΩ) were made from borosilicate glass capillary tubes using a two-step vertical micropipette puller. The pipette solution contained (in mM): CsCl 145, MgCl2∙6H2O 4, HEPES 10, EGTA 10, glucose 10, ATP 2 (pH 7.2). The external solution contained (in mM): NaCl 145, KCl 2.5, CaCl2 1.5, MgCl2.6H2O 1.2, HEPES 10, glucose 10 (pH 7.4). Experimental data were collected and analyzed using the program Pulse/Pulsefit 8.0 (HEKA Electronics, Pfalz, Germany). Macroscopic sodium currents were filtered at 5 kHz and digitized at 20 kHz with an EPC-9 patch-clamp amplifier (HEKA Electronics, Pfalz, Germany). Series resistance was kept near 5 MΩ and compensated to 65%–70%; linear capacitative and leakage currents were digitally subtracted using the P/4 protocol.

[4] = tested on: SNI-induced mechanical allodynia in rats; assay type: in vivo, rat (Sprague-Dawley); settings: for withdrawal threshold to von Frey hair: 200 μg/kg i.p., mean ± SEM, n = 6
Method: The spared nerve injury was produced as described previously by Decosterd and Woolf. The rats (male, weighing 180–220 g) were anesthetized with ketamine (300 mg/kg) and placed on a pad. Aseptic techniques were used, and the sciatic nerve and its three terminal branches, including the sural, common peroneal and tibial nerves, were exposed, ligated and transected. Muscle and skin were closed with 4-0 polydiaxone and wound clips. Sham controls involved the exposure of the sciatic nerve and its branches without any lesion.
Allodynia was assessed 3 days after SNI surgery, and only rats that developed allodynia, as defined by a significant decrease in their mechanical threshold using von Frey filament, were used. Tactile allodynia was assessed with calibrated von Frey filaments (Stoelting, Wood Dale, IL, USA) using an up-down paradigm. Mechanical sensitivity was determined by applying a series of twenty calibrated von Frey filaments (0.008–2 g, 2–60 g) to the plantar aspect of the left hind paw. […] A response was indicated by brisk withdrawal of the hind paw.

[5] = tested on: formalin-induced pain behaviors in rats; test: formalin-induced inflammatory rat model; assay type: in vivo, rat (Sprague-Dawley); settings: for pain score over the 40 min period: mean ± SEM, saline 569.2 ± 43.5 s
Method: Acute and chronic nociceptive responses were measured using the rat paw formalin test as descried by Dubission and modified by Malmberg. Adult Sprague-Dawley rats (male, weighing 180–220 g) were used for this behavioral test. During the test, each rat was placed into open polyvinyl cages (30 cm × 40 cm × 30 cm) and at least 30 min before administration of the toxin. All agents were administered 30 min prior to s.c. intraplantar formalin injection. A volume of 50 μL formalin (5%) solution was used as previously described and injected into the plantar surface of one hind paw. Lifting, favoring, licking, shaking and flinching of the injected paw were recorded as nociceptive responses. The total time of the nociceptive response was measured every 5 min and […] (mean ± SEM). Recording of nociceptive behavior commenced immediately after formalin injection and was continued for 40 min.

For `CC[C@H](C)[C@H](NC(=O)[C@H](CCC(=O)O)NC(=O)[C@H](Cc1ccc(O)cc1)NC(=O)[C@H](CCCCN)NC(=O)[C@@H]1CSSC[C@@H]2NC(=O)[C@H](CCC(N)=O)NC(=O)[C@H](CC(=O)O)NC(=O)[C@H](CC(N)=O)NC(=O)[C@H](CO)NC(=O)[C@@H]3CCCN3C(=O)[C@H](CC(N)=O)NC(=O)[C@@H]3CSSC[C@H](NC(=O)[C@H](C(C)C)NC(=O)[C@H](CC(C)C)NC(=O)[C@H](CC(N)=O)NC(=O)[C@H](CO)NC(=O)[C@H](CO)NC(=O)[C@H](CCCCN)NC(=O)[C@H](CSSC[C@H](NC(=O)[C@@H](N)CCC(=O)O)C(=O)N[C@@H](CC(C)C)C(=O)NCC(=O)N[C@@H](Cc4ccccc4)C(=O)NCC(=O)N[C@@H](CCCCN)C(=O)NCC(=O)N3)NC2=O)C(=O)N[C@@H](CO)C(=O)N[C@@H](CCCNC(=N)N)C(=O)N[C@@H](CCCCN)C(=O)N[C@@H](Cc2c[nH]cn2)C(=O)N[C@@H](CCCNC(=N)N)C(=O)N[C@@H](Cc2c[nH]c3ccccc23)C(=O)N1)C(N)=O` [μ-TRTX-Hhn1b], the “inhibition of pain responses (abdominal constriction)” value ([1]; 25.0 μg/kg i.p., p < 0.05) is listed as 25.2%, the “inhibition of pain responses (abdominal constriction)” value ([1]; 100 μg/kg i.p., p < 0.01) is listed as 55.6% and the “inhibition of other TTX-S VGSCs” value ([2]; at a high concentration, reference not given) is listed as “also inhibits other TTX-S VGSCs in rat DRG cells at a high concentration”. For the same compound, the “inhibition of neuronal TTX-S VGSCs” value [2] was “specifically inhibits the neuronal TTX-S VGSCs in rat dorsal root ganglion (DRG) cells”, the “sensitivity of Nav1.7 relative to other channels” value [3] was “Nav1.7 is the most sensitive to μ-TRTX-Hhn1b” and the side effects (mice and rats; 0.2 mg/kg) was “inactivity and paralysis”. For the same compound, the abnormal behaviors (mice and rats; highest dose, some mice and rats) was “inactivity and paralysis, were observed in some mice and rats”, the animal death (mice and rats; in the three pain tests / all tests) was “no animal death was observed; also recorded: no animal death occurred in all tests” and the “effect on activation and inactivation of Nav1.7” value (human Nav1.7; 50 nM synthetic peptide) was “did not significantly alter the activation (C) and steady-state inactivation (D) of Nav1.7; also recorded: inhibited the peak current of Nav1.7 without significant alteration of the activation and inactivation kinetics of Nav1.7”. For the same compound, the “half-activation voltage of Nav1.7” value (human Nav1.7; 50 nM synthetic peptide, Boltzmann fit) was −23.0 ± 0.4 mV, the “half-inactivation voltage of Nav1.7” value (human Nav1.7; 50 nM synthetic peptide, steady-state inactivation, Boltzmann fit) was −47.1 ± 0.3 mV and the “τon, time-dependent inhibition of Nav1.7” value (human Nav1.7; 100 nM synthetic peptide, HEK 293 cells) was 20.5 ± 0.3 s. For the same compound, the “inhibitory effect of synthetic peptide compared with native toxin” value (human Nav1.7; human Nav1.7 in HEK 293 cells) was “same inhibitory effect on human Nav1.7 current transiently expressed in HEK 293 cells as the native toxin”, the IC50 (human Nav1.7; synthetic peptide, human Nav1.7 + β1 subunit in HEK 293 cells, whole-cell patch clamp, room temperature, 50-ms depolarization from −80 mV to −10 mV, mean ± S.E., five to eight cells, read-out: IC50, inhibition of Nav1.7 current) was about 0.021 µM and the “reversal of SNI-induced mechanical allodynia” value ([4]; 50 µg/kg, 100 µg/kg or 200 µg/kg i.p., n = 6 per group) was “depressed in a dose-dependent manner; also recorded: significantly reversed SNI-induced allodynia”. For the same compound, the “withdrawal threshold to von Frey hair” value ([4]; 60 min after injection, saline 1.4 ± 0.4 g, p < 0.01) was 8.8 ± 0.9 g, the “withdrawal threshold to von Frey hair” value ([4]; 100 min after injection, p < 0.05) was 4.0 ± 0.6 g and the “duration of antinociceptive effect” value ([4]; i.p.) was “more than 100 min”. The “duration of antinociceptive effect relative to mexiletine” value ([4]; i.p.) was “about two-fold longer than that of mexiletine”, the “pain score over the 40 min period” value ([5]; 50 µg/kg i.p., n = 6, p < 0.05) was 458.5 ± 59.9 s and the “pain score over the 40 min period” value ([5]; 100 µg/kg i.p., n = 6, p < 0.01) was 346.0 ± 46.2 s. The “pain score over the 40 min period” value ([5]; 200 µg/kg i.p., n = 6, p < 0.01) was 199.8 ± 32.6 s, the “antinociceptive activity compared with morphine” value ([5]; 200 µg/kg peptide vs 100 µg/kg morphine, i.p.) was “antinociceptive activity similar to 100 µg/kg of morphine” and the “effect on pain responses, early phase” value ([5]; early phase (0–5 min), 50, 100 or 200 µg/kg i.p.) was “not in the early phases; also recorded: little effect”. For the same compound, the “suppression of pain behaviors, late phase” value ([5]; late phase (15–30 min), 50, 100 or 200 µg/kg i.p.) was “dose-dependent suppression of pain behaviors; also recorded: significantly inhibited”.

Source: paper PMC4147587, “Synthesis and Analgesic Effects of μ-TRTX-Hhn1b on Models of Inflammatory and Neuropathic Pain” (Toxins, 2014)
